Laboratory results as given in the supplement of paper PMC11208160.

Experiment: recombinant barcode read abundance after kanamycin selection (control-corrected) (log10(CPM+1)); higher = more efficient recombination; sequences stand for … in AGTGCAGAGAAAATCGGCCAGTTTTCTCTGCCTGCAGTCCGCATGCCGT…AGATTTATGCAGCGGACTGCCTTTCTCCCAAAGTGATAAACCGGACAGTATCATGGACCGGTTTTCCCGGTAATCCGTATTTGCAAGGTTGGTTTCACT; site = the 11-nt target
Procedure, shortened: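 The screen was pooled in E. coli and paired targets with IS621 bridge RNA target-binding loops. Recombination efficiency is taken from barcode counts per million at recombinant junctions, averaged and adjusted against the control. Values, in the form log10(CPM+1), come from duplicate plating on chloramphenicol/ampicillin LB agar or on chloramphenicol/ampicillin/kanamycin with 0.1 mM IPTG.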
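Further: IS621 recombinase and bridge RNA in Escherichia coli cells.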

Row | Sequence | recombinant barcode read abundance (log10)
1 | AGGCATCCTTGGGTTCTAACCTGTTGCCT (site AGGCATCCTAG) | 0.147
2 | AGGCATCCTTGGGTTCTAACCTGTTGCCT (site ATGCATCCTAG) | 0.0852
3 | AGGCCGCCTTGGGTTCTAACCTGTTGCCG (site AGGCCGCCTCG) | 1.17
4 | AGGCCGCCTTGGGTTCTAACCTGTTGCCG (site AGGCCGGCTCG) | 0.178
5 | AGGGAGACTTGGGTTCTAACCTGTTGCCA (site AGGAAGACTTG) | 1.63
6 | AGGGAGACTTGGGTTCTAACCTGTTGCCA (site AGGCAGACTTG) | 0.0382
7 | AGGGAGACTTGGGTTCTAACCTGTTGCCA (site AGGGAGACTTG) | 2.49
8 | AGGGAGACTTGGGTTCTAACCTGTTGCCA (site AGGTAGACTTG) | 0.0182
9 | AGGGAGACTTGGGTTCTAACCTGTTGCTT (site AGGGAGACTAA) | 2.39
10 | AGGGAGACTTGGGTTCTAACCTGTTGCTT (site AGGGATACTAA) | 0.25
11 | AGGGCCTCTTGGGTTCTAACCTGTTGCAG (site AGGGCCTCTCT) | 2.73
12 | AGGGCCTCTTGGGTTCTAACCTGTTGCAG (site GGGGCCTCTTT) | 0.118
13 | AGGGCGCCTTGGGTTCTAACCTGTTGCTT (site AGGGCGCCTAA) | 1.18
14 | AGGGCGCCTTGGGTTCTAACCTGTTGCTT (site CATTTAGCTCC) | 0.822
15 | AGGGGAGCTTGGGTTCTAACCTGTTGCCT (site AGGGAAGCTAG) | 1.12
16 | AGGGGAGCTTGGGTTCTAACCTGTTGCCT (site AGGGCAGCTAG) | 0.109
17 | AGGGGAGCTTGGGTTCTAACCTGTTGCCT (site AGGGGAGCTAG) | 1.61
18 | AGGGGAGCTTGGGTTCTAACCTGTTGCCT (site AGGGTAGCTAG) | 0.315
19 | AGGTAGACTTGGGTTCTAACCTGTTGCTA (site AGGTAGACTTA) | 2.44
20 | AGGTAGACTTGGGTTCTAACCTGTTGCTA (site GGGTACACTTA) | 0.303
21 | AGGTCACCTTGGGTTCTAACCTGTTGCAT (site AGGTCACCTAA) | 0.129
22 | AGGTCACCTTGGGTTCTAACCTGTTGCAT (site AGGTCACCTAC) | 0.62
23 | AGGTCACCTTGGGTTCTAACCTGTTGCAT (site AGGTCACCTAG) | 0.128
24 | AGGTCACCTTGGGTTCTAACCTGTTGCAT (site AGGTCACCTAT) | 2.12
25 | AGGTCCTCTTGGGTTCTAACCTGTTGCTT (site AGGTCCTCTAA) | 1.13
26 | AGGTCCTCTTGGGTTCTAACCTGTTGCTT (site AGGTCCTCTAC) | 0.715

Row | Sequence | recombinant barcode read abundance (log10)
27 | AGGTCCTCTTGGGTTCTAACCTGTTGCTT (site AGGTCCTCTAG) | 0.954
28 | AGGTCCTCTTGGGTTCTAACCTGTTGCTT (site AGGTCCTCTAT) | 1.2
29 | AGGTCGGCTTGGGTTCTAACCTGTTGCCT (site AGATCGGCTAG) | 0.329
30 | AGGTCGGCTTGGGTTCTAACCTGTTGCCT (site AGGTCGGCTAG) | 1.24
31 | AGGTCGTCTTGGGTTCTAACCTGTTGCCT (site AAGTCGTCTAG) | 0
32 | AGGTCGTCTTGGGTTCTAACCTGTTGCCT (site ACGTCGTCTAG) | 0.146
33 | AGGTCGTCTTGGGTTCTAACCTGTTGCCT (site AGGTCGTCTAG) | 1.74
34 | AGGTCGTCTTGGGTTCTAACCTGTTGCCT (site ATGTCGTCTAG) | 0.0512
35 | AGGTGCCCTTGGGTTCTAACCTGTTGCCG (site AAGTGCTCTCG) | 0.235
36 | AGGTGCCCTTGGGTTCTAACCTGTTGCCG (site AGGTGCCCTCG) | 1.15
37 | AGGTGTTCTTGGGTTCTAACCTGTTGCCT (site AGGTGTTCTAG) | 0.716
38 | AGGTGTTCTTGGGTTCTAACCTGTTGCCT (site ATGCGTTCTAG) | 0.018
39 | AGTAAGACTTGGGTTCTAACCTGTTGCCT (site AGTAAGACTAA) | 0.132
40 | AGTAAGACTTGGGTTCTAACCTGTTGCCT (site AGTAAGACTAC) | 0.16
41 | AGTAAGACTTGGGTTCTAACCTGTTGCCT (site AGTAAGACTAG) | 1.69
42 | AGTAAGACTTGGGTTCTAACCTGTTGCCT (site AGTAAGACTAT) | 0.2
43 | AGTAAGACTTGGGTTCTAACCTGTTGCTA (site ACTAAGACTCA) | 0.154
44 | AGTAAGACTTGGGTTCTAACCTGTTGCTA (site AGTAAGACTTA) | 1.23
45 | AGTAAGTCTTGGGTTCTAACCTGTTGCCT (site AATAAGTCTAG) | 0.0805
46 | AGTAAGTCTTGGGTTCTAACCTGTTGCCT (site ACTAAGTCTAG) | 0.186
47 | AGTAAGTCTTGGGTTCTAACCTGTTGCCT (site AGTAAGTCTAG) | 0.61
48 | AGTAAGTCTTGGGTTCTAACCTGTTGCCT (site ATTAAGTCTAG) | 0.0108
49 | AGTAATTCTTGGGTTCTAACCTGTTGCCT (site AGAAATTCTAG) | 0.0418
50 | AGTAATTCTTGGGTTCTAACCTGTTGCCT (site AGCAATTCTAG) | 0.0536
51 | AGTAATTCTTGGGTTCTAACCTGTTGCCT (site AGGAATTCTAG) | 0.0166
52 | AGTAATTCTTGGGTTCTAACCTGTTGCCT (site AGTAATTCTAG) | 0.454

Row | Sequence | recombinant barcode read abundance (log10)
53 | AGTACCTCTTGGGTTCTAACCTGTTGCCT (site AATACCTCTAG) | 0.192
54 | AGTACCTCTTGGGTTCTAACCTGTTGCCT (site ACTACCTCTAG) | 0.283
55 | AGTACCTCTTGGGTTCTAACCTGTTGCCT (site AGTACCTCTAG) | 0.941
56 | AGTACCTCTTGGGTTCTAACCTGTTGCCT (site ATTACCTCTAG) | 0.0826
57 | AGTAGACCTTGGGTTCTAACCTGTTGCTT (site AGTAGACCTAA) | 0.828
58 | AGTAGACCTTGGGTTCTAACCTGTTGCTT (site AGTATACCTCA) | 0.0353
59 | AGTATACCTTGGGTTCTAACCTGTTGCTG (site AGTAGACCTAA) | 0.178
60 | AGTATACCTTGGGTTCTAACCTGTTGCTG (site AGTATACCTCA) | 1.31
61 | AGTCAGACTTGGGTTCTAACCTGTTGCAC (site AGTCAGACTGT) | 1.19
62 | AGTCAGACTTGGGTTCTAACCTGTTGCAC (site CTAAGCGCTAG) | 0.396
63 | AGTCAGCCTTGGGTTCTAACCTGTTGCCT (site AGTAAGCCTAG) | 0.0129
64 | AGTCAGCCTTGGGTTCTAACCTGTTGCCT (site AGTCAGCCTAG) | 0.749
65 | AGTCAGCCTTGGGTTCTAACCTGTTGCCT (site AGTGAGCCTAG) | 0.318
66 | AGTCAGCCTTGGGTTCTAACCTGTTGCCT (site AGTTAGCCTAG) | 0.133
67 | AGTCAGTCTTGGGTTCTAACCTGTTGCCA (site AGTCAGTCTTG) | 0.0748
68 | AGTCAGTCTTGGGTTCTAACCTGTTGCCA (site AGTTAGTCTTG) | 0.121
69 | AGTCATACTTGGGTTCTAACCTGTTGCAT (site AGTCATACTAT) | 0.356
70 | AGTCATACTTGGGTTCTAACCTGTTGCAT (site AGTCATCCTAG) | 0.0486
71 | AGTCATACTTGGGTTCTAACCTGTTGCCA (site AGTCATACTTG) | 0.355
72 | AGTCATACTTGGGTTCTAACCTGTTGCCA (site GACGTGTCTAC) | 0.0524
73 | AGTCCTTCTTGGGTTCTAACCTGTTGCAT (site AGTCCTTCTAT) | 0.878
74 | AGTCCTTCTTGGGTTCTAACCTGTTGCAT (site CGTCCTTCTAG) | 0.0721
75 | AGTCTACCTTGGGTTCTAACCTGTTGCCT (site AGTCTACCTAG) | 1.23
76 | AGTCTACCTTGGGTTCTAACCTGTTGCCT (site CGTCTACCTAG) | 0.0985
77 | AGTCTAGCTTGGGTTCTAACCTGTTGCCG (site AGTCTAGCTAG) | 0.083
